Values joined by “and” are separate entries in the source; they are usually repeats but may differ in a detail not shown here. Equal values may be shown once. Inconclusive results and toxic doses are left out.
System: BDF1 mice, B16 melanoma ip, median survival T/C
Assay: NCI In Vivo Anticancer Drug Screen. Data for tumor model B16 Melanoma (intraperitoneal) in B6D2F1 (BDF1) mice
Conditions: endpoint: median survival time, higher = longer survival
Experimental: The antitumor activity of compounds was measured in mice bearing transplantable tumors. Survival or tumor size were measured and the results are expressed as the measurement made in the treated group (T) divided by the measurement made in the vehicle treated control group (C). The tumor model used in this assay is B16 Melanoma (intraperitoneal) in B6D2F1 (BDF1) mice

[1] = dose: 25.0 mg/kg/injection, schedule: Q01DX009 (ip), vehicle: Klucel (hydroxypropylcellulose) (HPC)
[2] = dose: 50.0 mg/kg/injection, schedule: Q01DX009 (ip), vehicle: Klucel (hydroxypropylcellulose) (HPC)
[3] = dose: 100.0 mg/kg/injection, schedule: Q01DX009 (ip), vehicle: Klucel (hydroxypropylcellulose) (HPC)
[4] = dose: 200.0 mg/kg/injection, schedule: Q01DX009 (ip), vehicle: Klucel (hydroxypropylcellulose) (HPC)
[5] = dose: 400.0 mg/kg/injection, schedule: Q01DX009 (ip), vehicle: Klucel (hydroxypropylcellulose) (HPC)
[6] = dose: 12.5 mg/kg/injection, schedule: Q01DX009 (ip), vehicle: saline
[7] = dose: 25.0 mg/kg/injection, schedule: Q01DX009 (ip), vehicle: saline
[8] = dose: 50.0 mg/kg/injection, schedule: Q01DX009 (ip), vehicle: saline
[9] = dose: 6.25 mg/kg/injection, schedule: Q01DX009 (ip), vehicle: Klucel (hydroxypropylcellulose) (HPC)
[10] = dose: 12.5 mg/kg/injection, schedule: Q01DX009 (ip), vehicle: Klucel (hydroxypropylcellulose) (HPC)

Which results are given for COc1ccc(CCN2CC(=O)NC(=O)C2)cc1OC?
T/C [1]: 97 % of control; T/C [2]: 91 % of control; T/C [3]: 88 % of control; T/C [4]: 94 % of control; T/C [5]: 91 % of control

NNC(=O)c1ccccc1 was tested. Which T/C [6] did it give?
Its T/C is 105 % of control.

What about the T/C [7] of the same molecule?
Its T/C is 97 % of control.

What about the T/C [8] of the same molecule?
The T/C was 88 % of control.

How did the T/C (dose: 1.56 mg/kg/injection, schedule: Q04DX003 (ip), vehicle: saline) turn out when N#CSCc1ccccc1Cl was run?
Its T/C is 89 % of control.

What about the T/C (dose: 3.13 mg/kg/injection, schedule: Q01DX009 (ip), vehicle: saline with Tween-80) of the same molecule?
Its T/C is 105 % of control.

And the T/C (dose: 3.13 mg/kg/injection, schedule: Q04DX003 (ip), vehicle: saline)?
The T/C was 89 % of control.

What about the T/C (dose: 6.25 mg/kg/injection, schedule: Q01DX009 (ip), vehicle: saline with Tween-80) of the same molecule?
Its T/C is 105 % of control.

What about the T/C (dose: 6.25 mg/kg/injection, schedule: Q04DX003 (ip), vehicle: saline with Tween-80) of the same molecule?
Its T/C is 88 % of control.

And the T/C (dose: 6.25 mg/kg/injection, schedule: Q04DX003 (ip), vehicle: saline)?
Its T/C is 86 % of control.

And the T/C (dose: 12.5 mg/kg/injection, schedule: Q01DX009 (ip), vehicle: saline with Tween-80)?
The T/C was 114 % of control.

With NC1CCC(CCCC2CCCC2)CC1 (configuration not stated) as the molecule, how does the T/C [9] read?
The T/C was 96 % of control.

And the T/C [10]?
Its T/C is 86 % of control.

And the T/C [1]?
Its T/C is 89 % of control.

For Cc1cc(CCl)c(C)c(Br)c1C, which T/C [9] is on record?
The T/C was 97 % of control.

And the T/C [10]?
The T/C was 119 % of control.

And the T/C [1]?
Its T/C is 105 % of control.

And the T/C [2]?
Its T/C is 105 % of control.

Which T/C [3] does the source give for CC12C=CC3(CCC4C(C)(C)C(O)C(=O)CC4(C)C3CC1=O)C2 (configuration not stated) here?
Its T/C is 97 % of control.

What about the T/C [4] of the same molecule?
Its T/C is 89 % of control.

And the T/C [5]?
Its T/C is 94 % of control.

Which T/C [7] does the source give for O=c1n[n+]([O-])ccn1C1OC(CO)C(O)C1O (configuration not stated) here?
The T/C was 92 % of control and 108 % of control.

What about the T/C [8] of the same molecule?
Its T/C is 102 % of control and 115 % of control.

And the T/C (dose: 100.0 mg/kg/injection, schedule: Q01DX009 (ip), vehicle: saline)?
Its T/C is 115 % of control and 120 % of control.

And the T/C (dose: 200.0 mg/kg/injection, schedule: Q01DX009 (ip), vehicle: saline)?
Its T/C is 122 % of control.

For OC(CCl)CN1CC[N+]2(CC1)CC[N+]1(CCN(CC(O)CCl)CC1)CC2 (configuration not stated), which T/C (dose: 4.0 mg/kg/injection, schedule: Q03HX024 (ip), vehicle: water) is on record?
The T/C was 114 % of control.

And the T/C (dose: 8.0 mg/kg/injection, schedule: Q03HX016 (ip), vehicle: water)?
Its T/C is 114 % of control.

And the T/C (dose: 8.0 mg/kg/injection, schedule: Q03HX024 (ip), vehicle: water)?
The T/C was 117 % of control.

What about the T/C [6] of the same molecule?
The T/C was 116 % of control.

What about the T/C (dose: 16.0 mg/kg/injection, schedule: Q01DX009 (ip), vehicle: water) of the same molecule?
Its T/C is 114 % of control.

What about the T/C (dose: 16.0 mg/kg/injection, schedule: Q03HX008 (ip), vehicle: water) of the same molecule?
The T/C was 113 % of control.

And the T/C (dose: 16.0 mg/kg/injection, schedule: Q03HX016 (ip), vehicle: water)?
The T/C was 121 % of control.

What about the T/C (dose: 16.0 mg/kg/injection, schedule: Q03HX024 (ip), vehicle: water) of the same molecule?
Its T/C is 121 % of control.

What about the T/C [7] of the same molecule?
The T/C was 111 % of control.

And the T/C (dose: 32.0 mg/kg/injection, schedule: Q03HX008 (ip), vehicle: water)?
Its T/C is 123 % of control.

What about the T/C (dose: 44.0 mg/kg/injection, schedule: Q01DX009 (ip), vehicle: saline) of the same molecule?
The T/C was 116 % of control.

And the T/C (dose: 66.0 mg/kg/injection, schedule: Q01DX009 (ip), vehicle: water)?
Its T/C is 151 % of control and 172 % of control.

And the T/C (dose: 100.0 mg/kg/injection, schedule: Q01DX009 (ip), vehicle: water)?
Its T/C is 150 % of control.
